Assay results published in the NIST ThermoML archive (doi:10.1016/j.jct.2013.09.035).

Conditions: Liquid, Vibrating tube method

CCOC(F)(C(F)(F)C(F)(F)C(F)(F)F)C(F)(C(F)(F)F)C(F)(F)F (centres undefined) [2-trifluoromethyl-3-ethoxydodecafluorohexane]
Conditions | mass density [kg/m3]
283.48 K, 60000 kPa | 1751.01
283.49 K, 3000 kPa | 1658.1
283.49 K, 50000 kPa | 1737.96
283.49 K, 70000 kPa | 1762.23
283.5 K, 5000 kPa | 1662.38
283.5 K, 10000 kPa | 1672.98
283.5 K, 30000 kPa | 1709.09
283.5 K, 40000 kPa | 1724.44
283.5 K, 80000 kPa | 1773.1
283.5 K, 90000 kPa | 1783.39
283.51 K, 100 kPa | 1652.11
283.51 K, 1000 kPa | 1653.72
283.51 K, 15000 kPa | 1682.71
283.51 K, 20000 kPa | 1691.9
283.51 K, 25000 kPa | 1701.13
283.52 K, 100000 kPa | 1793.19
293.04 K, 40000 kPa | 1708.75
293.04 K, 50000 kPa | 1723.04
293.04 K, 70000 kPa | 1748.33
293.04 K, 90000 kPa | 1770.03
293.04 K, 100000 kPa | 1780.11
293.05 K, 100 kPa | 1631.62
293.05 K, 1000 kPa | 1633.93
293.05 K, 3000 kPa | 1638.93
293.05 K, 5000 kPa | 1643.69
293.05 K, 10000 kPa | 1654.94
293.05 K, 15000 kPa | 1665.37
293.05 K, 20000 kPa | 1675.05
293.05 K, 25000 kPa | 1684.16
293.05 K, 30000 kPa | 1692.79
293.05 K, 60000 kPa | 1736.39
293.05 K, 80000 kPa | 1759.65
302.88 K, 100 kPa | 1610.41
302.88 K, 1000 kPa | 1612.92
302.88 K, 3000 kPa | 1618.33
302.88 K, 10000 kPa | 1635.7
302.88 K, 60000 kPa | 1721.46
302.89 K, 5000 kPa | 1623.52
302.89 K, 15000 kPa | 1646.85
302.89 K, 20000 kPa | 1657.18
302.89 K, 25000 kPa | 1666.89
302.89 K, 30000 kPa | 1676.01
302.89 K, 40000 kPa | 1692.64
302.89 K, 50000 kPa | 1707.74
302.89 K, 70000 kPa | 1733.98
302.89 K, 80000 kPa | 1745.75
302.89 K, 90000 kPa | 1756.68
302.89 K, 100000 kPa | 1767.03
313.15 K, 90000 kPa | 1744.34
313.16 K, 3000 kPa | 1598.14
313.16 K, 15000 kPa | 1628.94
313.16 K, 20000 kPa | 1639.8
313.16 K, 30000 kPa | 1659.7
313.16 K, 40000 kPa | 1677.38
313.16 K, 60000 kPa | 1707.63
313.17 K, 100 kPa | 1589.56
313.17 K, 1000 kPa | 1592.21
313.17 K, 10000 kPa | 1616.81
313.17 K, 25000 kPa | 1650.1
313.17 K, 50000 kPa | 1693.17
313.17 K, 70010 kPa | 1720.7
313.17 K, 80000 kPa | 1733
313.17 K, 100000 kPa | 1755.06
313.18 K, 5000 kPa | 1603.66
323.04 K, 5000 kPa | 1585.04
323.04 K, 10000 kPa | 1599.21
323.04 K, 15000 kPa | 1612.03
323.04 K, 20000 kPa | 1623.79
323.04 K, 25000 kPa | 1634.67
323.04 K, 30000 kPa | 1644.88
323.04 K, 40000 kPa | 1663.35
323.04 K, 50000 kPa | 1679.91
323.04 K, 60000 kPa | 1694.93
323.04 K, 70000 kPa | 1708.52
323.04 K, 80000 kPa | 1721.13
323.04 K, 90000 kPa | 1732.9
323.04 K, 100000 kPa | 1743.96
323.05 K, 1000 kPa | 1572.54
323.05 K, 3000 kPa | 1578.97
323.06 K, 100 kPa | 1569.59
332.94 K, 15000 kPa | 1591.88
332.94 K, 20000 kPa | 1604.4
332.94 K, 25000 kPa | 1615.92
332.94 K, 30000 kPa | 1626.63
332.94 K, 40000 kPa | 1646.05
332.94 K, 50000 kPa | 1663.31
332.94 K, 60000 kPa | 1678.97
332.94 K, 70000 kPa | 1693.19
332.94 K, 80000 kPa | 1706.27
332.94 K, 90000 kPa | 1718.48
332.94 K, 100000 kPa | 1729.78
332.95 K, 3000 kPa | 1556.26
332.95 K, 5000 kPa | 1562.89
332.95 K, 10000 kPa | 1578.13
332.96 K, 1000 kPa | 1549.29
332.97 K, 100 kPa | 1546.01
342.55 K, 100 kPa | 1525.56
342.56 K, 1000 kPa | 1529.11
342.56 K, 3000 kPa | 1536.69
342.56 K, 5000 kPa | 1543.86
342.56 K, 10000 kPa | 1560.31
342.57 K, 15000 kPa | 1574.95
342.57 K, 20000 kPa | 1588.2
342.57 K, 25000 kPa | 1600.4
342.57 K, 30000 kPa | 1611.69
342.57 K, 40000 kPa | 1632.02
342.57 K, 50000 kPa | 1650.06
342.57 K, 60000 kPa | 1666.29
342.57 K, 70000 kPa | 1680.92
342.57 K, 80000 kPa | 1694.39
342.57 K, 90000 kPa | 1706.96
342.57 K, 100000 kPa | 1718.69
352.56 K, 100 kPa | 1503.72
352.56 K, 1000 kPa | 1507.64
352.57 K, 3000 kPa | 1515.99
352.57 K, 5000 kPa | 1523.8
352.57 K, 10000 kPa | 1541.62
352.57 K, 15000 kPa | 1557.31
352.57 K, 20000 kPa | 1571.45
352.57 K, 25000 kPa | 1584.35
352.57 K, 30000 kPa | 1596.28
352.57 K, 40000 kPa | 1617.61
352.57 K, 50000 kPa | 1636.45
352.57 K, 70000 kPa | 1668.54
352.58 K, 60000 kPa | 1653.3
352.58 K, 80000 kPa | 1682.53
352.58 K, 90000 kPa | 1695.44
352.58 K, 100000 kPa | 1707.52
362.59 K, 5000 kPa | 1503.25
362.59 K, 10000 kPa | 1522.52
362.59 K, 15000 kPa | 1539.4
362.6 K, 100 kPa | 1481.19
362.6 K, 1000 kPa | 1485.52
362.6 K, 3000 kPa | 1494.68
362.6 K, 20000 kPa | 1554.46
362.6 K, 25000 kPa | 1568.1
362.6 K, 30000 kPa | 1580.67
362.6 K, 40000 kPa | 1603.06
362.6 K, 50000 kPa | 1622.7
362.6 K, 60000 kPa | 1640.27
362.6 K, 70000 kPa | 1656.03
362.6 K, 80000 kPa | 1670.49
362.6 K, 90000 kPa | 1683.83
362.6 K, 100000 kPa | 1696.22
